Columns and labels:
[1] = tested on: phosphorylated RIP3 and MLKL; assay: Western blot of necroptosis markers (preliminary, data not shown); format: cell-based
[2] = tested on: RD cells; assay: Autophagic flux by western blotting (p62; LC3II with bafilomycin A1), RD; format: cell-based, human
Description: AJ-5, synthesized as previously described, was dissolved in dimethyl sulfoxide (DMSO) (D8418; Sigma Aldrich) to give a 5 mM AJ-5 stock which was stored at room temperature (RT) and used within 5 days. AJ-5 was diluted in cell culture medium to achieve the desired final concentration and a vehicle control (DMSO) of the same concentration was prepared simultaneously. Cells were treated at a confluency of 60%. For western blot experiments to determine autophagy flux, cells were treated with 200 nM bafilomycin A1 (B1793; Sigma Aldrich) for 2 h post AJ-5 treatment. Doxorubicin (z/26/0167; Teva Pharmaceutical Industries Ltd, Israel) was used as a positive control in Caspase-Glo experiments at a concentration of 0.5 µM.
Cells were lysed at 4 °C in whole-cell lysis buffer (0.125 M Tris-HCl pH 6.8, 4% SDS, 0.2% glycerol, 0.1% β-mercaptoethanol and a pinch of bromophenol blue) and boiled for 10 min. Proteins were resolved by SDS-PAGE (6–15% gels) and transferred to Hybond ECL membranes (Amersham, UK). […] Densitometry readings were obtained using ImageJ v1.50i[58] and protein expression levels were represented as a ratio of protein of interest/p38 loading control normalized to the vehicletreated control sample where appropriate. […]

[3] = tested on: RH30 cells; assay: MTT cell viability assay, RH30; format: cell-based, human; settings: RH30 (aRMS), 48 h
Description: (§1) RH30 human aRMS cells (kindly provided by Associate Professor Judith Davie, Southern Illinois University), AX-OH-1 human aRMS and FL-OH-1 human eRMS cells (kindly provided by Professor Stefan Bath, University of Cape Town) were cultured in Roswell Park Memorial Institute Medium (RPMI)-1640 (Sigma Aldrich, Missouri, USA). […] Cell morphology was monitored using an Olympus CKX41 inverted microscope (MSAC Ltd, UK) and imaged with an EVOS™ XL AMEX1000 Core Imaging System (Thermo Fisher Scientific, Massachusetts, USA).
(§2) Cells were seeded in 96-well plates and treated the next day with a range of AJ-5 concentrations (0.1–1.0 μM) or vehicle ([…]) for 48 h. Cell viability was measured using the 3-(4,5-dimethylthiazol-2-yl)-2,5-diphenyl-trazolium bromide (MTT) assay (11465007001; Sigma Aldrich) according to the manufacturer’s instructions. Mean cell viability was calculated as a percentage of the mean vehicle control. At least three independent experiments in quadruplicate were performed from which the half maximal inhibitory concentration (IC50) was determined using GraphPad Prism version 6.0 (GraphPad Software, California, USA). The selectivity index (SI) was determined by dividing the IC50 of a normal cell line by the IC50 of a cancer cell line.

[4] = tested on: FL-OH-1 cells; assay: MTT cell viability assay, FL-OH-1; format: cell-based, human; settings: FL-OH-1 (eRMS), 48 h
Description: as §1, §2

**Q.** With `CC(C)c1cccc(C(C)C)c1[N+]1=Cc2cccc[c]2[Pd-2]1([Cl])[P+](CC[P+](c1ccccc1)(c1ccccc1)[Pd-2]1([Cl])[c]2ccccc2C=[N+]1c1c(C(C)C)cccc1C(C)C)(c1ccccc1)c1ccccc1` (stereo not drawn) [AJ-5] as the molecule, how does the “Active (phosphorylated) MLKL” value [1] read?
**A.** increased levels

**Q.** And the “Phosphorylated RIP3” value [1]?
**A.** increase

**Q.** What about the “Autophagic flux judged by p62 levels” value ([2]; 0.1 µM or IC50, 24 and 48 h) of the same molecule?
**A.** increases autophagic flux

**Q.** What about the “LC3II in the presence of bafilomycin A1, compared with vehicle” value ([2]; IC50 24 h then 200 nM bafilomycin A1 2 h) of the same molecule?
**A.** negligible change in LC3II

**Q.** What about the IC50 [3] of the same molecule?
**A.** ≤ 200 nM

**Q.** And the IC50 [4]?
**A.** ≤ 200 nM
